In ChEMBL document CHEMBL4364344, “Design, synthesis and evaluation of activity and pharmacokinetic profile of new derivatives of xanthone and piperazine in the central nervous system” (Bioorg Med Chem Lett, 2019):

What was measured:
[1] = Ratio of drug uptake in CD-1 mouse brain to plasma at 5 mg/kg, ip measured up to 480 mins by LC/ESI-MS/MS analysis; type: ADME, organism-based; conditions: read-out: BPR
[2] = target: T1, 5-hydroxytryptamine receptor 2A (Homo sapiens, UniProt P28223); assay: Displacement of [3H]ketanserin from recombinant human 5-HT2A receptor after 60 mins by radiometric scintillation analysis
[3] = target: Muscarinic acetylcholine receptor M1 (Homo sapiens) (UniProt P11229); assay: Displacement of [3H]pirenzepine from recombinant human M1 receptor at 10 uM after 60 mins by radiometric scintillation analysis relative to control
[4] = Mutagenicity in Salmonella typhimurium TA102 at 5 ug/plate preincubated for 20 mins followed by addition of top agar and measured after 48 hrs by Ames test; type: toxicity; conditions: salmonella enterica subsp. enterica serovar typhimurium
[5] = target: D(2) dopamine receptor (Homo sapiens) (UniProt P14416); assay: Displacement of [3H]methyl-spiperone from recombinant human D2S dopamine receptor at 10 uM after 60 mins by radiometric scintillation analysis relative to control
[6] = target: 5-hydroxytryptamine receptor 5A (Homo sapiens) (UniProt P47898); assay: Displacement of [3H]LSD from recombinant human 5-HT5A receptor at 10 uM after 120 mins by radiometric scintillation analysis relative to control
Rattus norvegicus [7] = organism: Rattus norvegicus; assay: Displacement of [3H] TBPS from rat GABA gated chloride channel at 10 uM measured after 120 mins by scintillation counter method relative to control relative to control
[8] = target: Beta-1 adrenergic receptor (Homo sapiens) (UniProt P08588); assay: Displacement of [3H](-)CGP 12177 from recombinant human beta1 receptor at 10 uM after 60 mins by radiometric scintillation analysis relative to control
[9] = target: Histamine H2 receptor (Homo sapiens) (UniProt P25021); assay: Displacement of [125I]APT from recombinant human H2 histamine receptor at 10 uM after 120 mins by radiometric scintillation counting analysis relative to control
[10] = target: Adrenergic receptor alpha-2 (Rattus norvegicus) (UniProt P22086+P19328+P22909); assay: Displacement of [3H]RX 821002 from rat brain alpha 2 receptor at 10 uM after 60 mins by radiometric scintillation analysis relative to control
[11] = target: Adenosine receptor A3 (Homo sapiens) (UniProt P0DMS8); assay: Displacement of [125I]AB-MECA from recombinant human A3 receptor at 10 uM after 120 mins by radiometric scintillation analysis relative to control
[12] = target: Vasoactive intestinal polypeptide receptor 1 (Homo sapiens) (UniProt P32241); assay: Displacement of [125I]VIP recombinant human VPAC1 receptor at 10 uM after 120 mins by radiometric scintillation analysis relative to control
Rattus norvegicus [13] = organism: Rattus norvegicus; assay: Displacement of [3H]batrachotoxinin from rat brain sodium channel site 2 at 10 uM after 60 mins by scintillation counting analysis relative to control relative to control
[14] = target: Neuropeptide Y receptor type 1 (Homo sapiens) (UniProt P25929); assay: Displacement of [125I]peptide YY from human Y1 receptor at 10 uM after 120 mins by radiometric scintillation analysis relative to control
[15] = target: Neuromedin-K receptor (Homo sapiens) (UniProt P29371); assay: Displacement of [3H]SR 142801 from recombinant human NK3 receptor at 10 uM after 120 mins by radiometric scintillation analysis relative to control
[16] = Mutagenicity in Salmonella typhimurium TA98 at 5 ug/plate preincubated for 20 mins followed by addition of top agar and measured after 48 hrs by Ames test; type: toxicity; conditions: salmonella enterica subsp. enterica serovar typhimurium
[17] = target: Serotonin 3 (5-HT3) receptor (Homo sapiens) (UniProt P46098+A5X5Y0+O95264+Q70Z44+Q8WXA8); assay: Displacement of [3H]BRL 43694 from recombinant human 5-HT3 receptor at 10 uM after 120 mins by radiometric scintillation analysis relative to control; type: protein-complex assay
[18] = target: Small conductance calcium-activated potassium channel (Rattus norvegicus) (UniProt P70604+P70606+P70605); assay: Displacement of [125I]apamin from rat brain SKCa at 10 uM after 60 mins by radiometric scintillation analysis relative to control
[19] = target: L-type calcium channel (verapamil binding site) (Homo sapiens, UniProt O60840+Q01668+Q13698+Q13936); assay: Displacement of [3H] Diltiazem from human L-type calcium channel verapamil binding site at 10 uM after 20 hrs by scintillation analysis relative to control; type: protein assay; conditions: probe [3H] Diltiazem
[20] = target: B2 bradykinin receptor (Homo sapiens) (UniProt P30411); assay: Displacement of [3H]bradykinin from recombinant human B2 receptor at 10 uM after 60 mins by radiometric scintillation analysis relative to control
[21] = Cmax in CD-1 mouse plasma at 5 mg/kg, ip measured up to 480 mins by LC/ESI-MS/MS analysis; type: ADME, organism-based; set-up: dose 5 mg/kg, route intraperitoneal
[22] = target: T1, 5-hydroxytryptamine receptor 2A; assay: Displacement of [3H]ketanserin from recombinant human 5-HT2A receptor at 10 uM after 60 mins by radiometric scintillation analysis relative to control
[23] = target: 5-hydroxytryptamine receptor 1A (Homo sapiens) (UniProt P08908); assay: Displacement of [3H]8-OH-DPAT from recombinant human 5-HT1A receptor at 10 uM after 60 mins by radiometric scintillation analysis relative to control
[24] = target: 5-hydroxytryptamine receptor 2B (Homo sapiens, UniProt P41595); assay: Displacement of [125I](+/-)DOI from recombinant human 5-HT2B receptor at 10 uM after 60 mins by radiometric scintillation analysis relative to control
[25] = target: 5-hydroxytryptamine receptor 7 (Homo sapiens) (UniProt P34969); assay: Displacement of [3H]LSD from recombinant human 5-HT7 receptor at 10 uM after 120 mins by radiometric scintillation analysis relative to control
[26] = Mutagenicity in Salmonella typhimurium TA100 at 5 ug/plate preincubated for 20 mins followed by addition of top agar and measured after 48 hrs by Ames test; type: toxicity; conditions: salmonella enterica subsp. enterica serovar typhimurium
[27] = target: Cannabinoid receptor 1 (Homo sapiens) (UniProt P21554); assay: Displacement of [3H]CP 55940 from recombinant human CB1 receptor at 10 uM by radiometric scintillation analysis relative to control
[28] = target: Melatonin receptor type 1A (Homo sapiens) (UniProt P48039); assay: Displacement of [125I]2-iodomelatonin from recombinant human MT1 receptor at 10 uM after 240 mins by radiometric scintillation counting analysis relative to control
[29] = Displacement of [3H]batrachotoxinin from rat brain sodium channel site 2 after 60 mins by scintillation counting analysis
[30] = target: Neuropeptide Y receptor type 2 (Homo sapiens) (UniProt P49146); assay: Displacement of [125I]peptide YY from human Y2 receptor at 10 uM after 60 mins by radiometric scintillation analysis relative to control
[31] = Tmax in CD-1 mouse plasma at 5 mg/kg, ip measured up to 480 mins by LC/ESI-MS/MS analysis; type: ADME, organism-based
[32] = target: Vasopressin V1a receptor (Homo sapiens) (UniProt P37288); assay: Displacement of [3H]AVP recombinant human V1A receptor at 10 uM after 60 mins by radiometric scintillation analysis relative to control

T1 sequence (P28223 whole entry): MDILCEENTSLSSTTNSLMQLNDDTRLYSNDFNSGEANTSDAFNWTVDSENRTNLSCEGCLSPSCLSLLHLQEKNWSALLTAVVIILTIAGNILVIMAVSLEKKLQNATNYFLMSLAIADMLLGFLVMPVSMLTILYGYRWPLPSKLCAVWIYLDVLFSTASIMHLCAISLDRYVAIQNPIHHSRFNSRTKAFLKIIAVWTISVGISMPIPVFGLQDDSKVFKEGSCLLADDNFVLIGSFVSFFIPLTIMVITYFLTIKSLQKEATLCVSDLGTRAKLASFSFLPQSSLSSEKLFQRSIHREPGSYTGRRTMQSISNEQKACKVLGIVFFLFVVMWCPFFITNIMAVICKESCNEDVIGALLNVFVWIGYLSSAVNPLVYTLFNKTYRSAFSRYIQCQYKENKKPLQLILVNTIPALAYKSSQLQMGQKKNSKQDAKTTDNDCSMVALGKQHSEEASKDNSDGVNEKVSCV
Sequence of 5-hydroxytryptamine receptor 7 (Homo sapiens) (P34969 whole entry): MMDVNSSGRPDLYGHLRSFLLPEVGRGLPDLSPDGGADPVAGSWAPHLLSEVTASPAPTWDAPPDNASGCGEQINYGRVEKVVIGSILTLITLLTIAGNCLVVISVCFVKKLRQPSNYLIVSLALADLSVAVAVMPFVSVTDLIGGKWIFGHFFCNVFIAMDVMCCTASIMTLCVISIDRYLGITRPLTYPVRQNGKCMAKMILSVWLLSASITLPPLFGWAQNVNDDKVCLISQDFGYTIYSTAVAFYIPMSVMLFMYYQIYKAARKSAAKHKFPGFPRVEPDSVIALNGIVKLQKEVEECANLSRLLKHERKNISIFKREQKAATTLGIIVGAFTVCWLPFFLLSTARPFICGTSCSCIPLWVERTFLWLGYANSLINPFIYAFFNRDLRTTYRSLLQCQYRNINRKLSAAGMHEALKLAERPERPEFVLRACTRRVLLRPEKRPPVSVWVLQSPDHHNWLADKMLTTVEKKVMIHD
Sequence of Beta-1 adrenergic receptor (Homo sapiens) (P08588 whole entry, looked up): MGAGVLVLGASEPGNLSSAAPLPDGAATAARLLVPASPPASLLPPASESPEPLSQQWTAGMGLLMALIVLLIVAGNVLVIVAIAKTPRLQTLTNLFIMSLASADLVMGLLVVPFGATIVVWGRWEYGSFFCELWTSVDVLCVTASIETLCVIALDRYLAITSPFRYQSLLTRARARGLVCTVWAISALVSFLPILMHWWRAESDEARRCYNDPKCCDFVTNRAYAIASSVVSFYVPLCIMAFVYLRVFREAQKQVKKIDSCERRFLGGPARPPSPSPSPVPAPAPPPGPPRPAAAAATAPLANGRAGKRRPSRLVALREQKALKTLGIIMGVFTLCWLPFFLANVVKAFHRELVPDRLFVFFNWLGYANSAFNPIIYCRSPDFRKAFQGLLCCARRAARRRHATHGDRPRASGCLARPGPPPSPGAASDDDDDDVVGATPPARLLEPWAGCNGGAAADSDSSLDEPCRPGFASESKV
Sequence of 5-hydroxytryptamine receptor 5A (Homo sapiens) (P47898 whole entry): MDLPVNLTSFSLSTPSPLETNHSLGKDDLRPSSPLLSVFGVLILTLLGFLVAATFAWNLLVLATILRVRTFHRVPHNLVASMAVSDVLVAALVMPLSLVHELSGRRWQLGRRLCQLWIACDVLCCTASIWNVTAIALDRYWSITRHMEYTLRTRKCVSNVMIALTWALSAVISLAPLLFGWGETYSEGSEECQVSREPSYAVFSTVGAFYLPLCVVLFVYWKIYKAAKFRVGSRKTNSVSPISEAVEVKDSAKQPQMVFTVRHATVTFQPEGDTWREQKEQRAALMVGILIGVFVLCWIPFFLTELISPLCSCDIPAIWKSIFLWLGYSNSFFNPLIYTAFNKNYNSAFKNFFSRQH
Sequence of Adenosine receptor A3 (Homo sapiens) (P0DMS8 whole entry): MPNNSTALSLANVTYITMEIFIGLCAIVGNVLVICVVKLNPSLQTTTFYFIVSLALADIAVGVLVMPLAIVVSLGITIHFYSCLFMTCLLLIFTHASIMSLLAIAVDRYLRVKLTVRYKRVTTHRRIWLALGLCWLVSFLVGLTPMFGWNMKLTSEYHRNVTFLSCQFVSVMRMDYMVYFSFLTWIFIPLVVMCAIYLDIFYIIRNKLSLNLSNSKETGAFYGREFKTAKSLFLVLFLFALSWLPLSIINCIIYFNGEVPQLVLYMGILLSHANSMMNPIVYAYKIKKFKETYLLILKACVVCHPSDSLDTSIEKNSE
Sequence of Cannabinoid receptor 1 (Homo sapiens) (P21554 whole entry): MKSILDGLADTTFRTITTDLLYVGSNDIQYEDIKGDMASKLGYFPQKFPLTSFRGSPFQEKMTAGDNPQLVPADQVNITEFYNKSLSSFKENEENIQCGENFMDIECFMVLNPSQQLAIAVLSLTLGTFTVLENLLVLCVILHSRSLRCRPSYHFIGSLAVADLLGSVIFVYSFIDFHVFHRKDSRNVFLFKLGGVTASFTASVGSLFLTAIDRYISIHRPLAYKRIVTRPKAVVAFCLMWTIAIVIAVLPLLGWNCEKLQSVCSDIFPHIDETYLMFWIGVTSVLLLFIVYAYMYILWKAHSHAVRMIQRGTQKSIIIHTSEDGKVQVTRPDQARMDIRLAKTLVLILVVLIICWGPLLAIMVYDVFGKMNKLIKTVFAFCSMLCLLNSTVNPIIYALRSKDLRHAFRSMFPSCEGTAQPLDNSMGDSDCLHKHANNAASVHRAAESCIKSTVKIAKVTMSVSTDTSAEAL
Sequence of D(2) dopamine receptor (Homo sapiens) (P14416 whole entry): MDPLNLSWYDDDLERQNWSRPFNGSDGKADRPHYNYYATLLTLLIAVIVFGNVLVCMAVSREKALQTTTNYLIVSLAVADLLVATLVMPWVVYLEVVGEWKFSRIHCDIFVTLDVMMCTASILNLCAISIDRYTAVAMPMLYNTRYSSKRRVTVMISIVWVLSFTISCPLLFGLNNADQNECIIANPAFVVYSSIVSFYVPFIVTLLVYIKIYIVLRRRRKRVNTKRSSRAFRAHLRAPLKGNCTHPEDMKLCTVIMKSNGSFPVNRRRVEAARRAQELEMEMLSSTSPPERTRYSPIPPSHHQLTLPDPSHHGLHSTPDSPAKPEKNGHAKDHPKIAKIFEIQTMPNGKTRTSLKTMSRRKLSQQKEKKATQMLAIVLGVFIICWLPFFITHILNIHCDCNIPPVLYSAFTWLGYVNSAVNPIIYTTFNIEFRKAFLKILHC
Sequence of Vasoactive intestinal polypeptide receptor 1 (Homo sapiens) (P32241 whole entry): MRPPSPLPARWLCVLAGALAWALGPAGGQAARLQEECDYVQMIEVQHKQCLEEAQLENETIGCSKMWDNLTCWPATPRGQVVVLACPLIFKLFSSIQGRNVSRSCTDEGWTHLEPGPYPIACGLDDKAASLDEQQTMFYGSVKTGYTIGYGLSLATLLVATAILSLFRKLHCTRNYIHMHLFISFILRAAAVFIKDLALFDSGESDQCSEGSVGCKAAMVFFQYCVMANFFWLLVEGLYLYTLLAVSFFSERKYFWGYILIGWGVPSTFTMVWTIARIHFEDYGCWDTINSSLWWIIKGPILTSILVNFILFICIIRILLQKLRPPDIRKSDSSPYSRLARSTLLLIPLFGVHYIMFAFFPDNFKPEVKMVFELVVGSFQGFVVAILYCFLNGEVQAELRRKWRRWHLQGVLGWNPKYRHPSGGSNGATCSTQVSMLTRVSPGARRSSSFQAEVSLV
Sequence of 5-hydroxytryptamine receptor 2B (P41595 whole entry): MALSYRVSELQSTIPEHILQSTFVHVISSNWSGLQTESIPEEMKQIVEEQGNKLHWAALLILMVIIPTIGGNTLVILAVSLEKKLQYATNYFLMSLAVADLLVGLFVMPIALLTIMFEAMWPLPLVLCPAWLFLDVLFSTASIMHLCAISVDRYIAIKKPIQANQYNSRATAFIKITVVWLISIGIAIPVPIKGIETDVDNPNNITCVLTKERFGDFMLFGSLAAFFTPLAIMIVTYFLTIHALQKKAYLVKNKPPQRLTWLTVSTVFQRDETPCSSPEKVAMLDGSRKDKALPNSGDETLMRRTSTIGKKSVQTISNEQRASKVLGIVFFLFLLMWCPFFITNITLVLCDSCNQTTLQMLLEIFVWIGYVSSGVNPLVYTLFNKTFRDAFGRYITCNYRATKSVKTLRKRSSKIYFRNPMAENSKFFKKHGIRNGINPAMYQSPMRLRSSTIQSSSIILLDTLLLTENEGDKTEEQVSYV
Sequence of Melatonin receptor type 1A (Homo sapiens) (P48039 whole entry): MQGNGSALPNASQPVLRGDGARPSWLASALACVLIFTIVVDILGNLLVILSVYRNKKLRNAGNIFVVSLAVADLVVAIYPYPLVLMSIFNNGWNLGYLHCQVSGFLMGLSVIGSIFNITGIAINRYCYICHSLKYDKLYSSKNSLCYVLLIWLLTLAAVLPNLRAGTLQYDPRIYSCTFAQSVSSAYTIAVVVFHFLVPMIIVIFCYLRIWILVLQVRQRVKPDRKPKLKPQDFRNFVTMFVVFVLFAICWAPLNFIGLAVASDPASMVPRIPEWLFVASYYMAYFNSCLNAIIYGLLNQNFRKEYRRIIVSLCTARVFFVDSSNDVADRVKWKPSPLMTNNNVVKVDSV
Sequence of Histamine H2 receptor (Homo sapiens) (P25021 whole entry): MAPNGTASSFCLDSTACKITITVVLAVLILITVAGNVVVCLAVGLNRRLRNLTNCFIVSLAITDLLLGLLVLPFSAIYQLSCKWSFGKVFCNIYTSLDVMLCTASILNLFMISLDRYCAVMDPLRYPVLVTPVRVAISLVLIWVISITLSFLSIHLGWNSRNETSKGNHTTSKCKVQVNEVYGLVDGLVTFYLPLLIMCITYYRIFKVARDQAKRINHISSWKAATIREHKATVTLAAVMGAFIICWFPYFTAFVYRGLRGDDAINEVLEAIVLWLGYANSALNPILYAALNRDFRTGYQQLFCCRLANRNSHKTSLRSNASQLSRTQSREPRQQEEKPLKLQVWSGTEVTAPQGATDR

Cl.Cl.O=c1c2cc(Cl)ccc2oc2ccc(CN3CCN(CCOCCO)CC3)cc12
Kp at 8 h [1]: 9.79
Ki [2]: 2020 nM
inhibition [3]: 52.3%
Activity_index [4]: 0.93
inhibition [5]: 27.4%
inhibition [6]: 13.8%
inhibition (Rattus norvegicus [7]): 5%
inhibition [8]: 2.3%
inhibition [9]: 10.3%
inhibition [10]: 9.2%
inhibition [11]: 42.9%
inhibition [12]: -1.2%
inhibition (Rattus norvegicus [13]): 78.7%
inhibition [14]: -9.5%
inhibition [15]: 3.2%
Activity_index [16]: 1.03
inhibition [17]: 5.5%
inhibition [18]: 8.5%
inhibition at 20 h, 10 µM [19]: 42.2%
inhibition [20]: -7%
Cmax [21]: 1920 ng/mL
inhibition [22]: 62.8%
inhibition [23]: -2.6%
inhibition [24]: 76.8%
inhibition [25]: 5.3%
Activity_index [26]: 0.66
inhibition [27]: -0.1%
inhibition [28]: 11.1%
Ki [29]: 1340 nM
inhibition [30]: 3.1%
Tmax [31]: 15 min
inhibition [32]: -0.2%
